Measured values taken from paper PMC4964431, “Discovery of a Potential HER2 Inhibitor from Natural Products for the Treatment of HER2-Positive Breast Cancer” (International Journal of Molecular Sciences, 2016).
Entries after “also recorded” stand apart in the source; their conditions may differ.

Legend:
HER2 kinase = target: T1, HER2 kinase (Homo sapiens, UniProt P04626); assay: In vitro HER2 kinase inhibition assay (Invitrogen kit PV3366); type: biochemical; conditions: HER2 0.20 μg/mL, mean ± SD, read-out: Enzymatic IC50
T1 construct: purchased Invitrogen PV3366
T1 sequence (P04626 23-1255): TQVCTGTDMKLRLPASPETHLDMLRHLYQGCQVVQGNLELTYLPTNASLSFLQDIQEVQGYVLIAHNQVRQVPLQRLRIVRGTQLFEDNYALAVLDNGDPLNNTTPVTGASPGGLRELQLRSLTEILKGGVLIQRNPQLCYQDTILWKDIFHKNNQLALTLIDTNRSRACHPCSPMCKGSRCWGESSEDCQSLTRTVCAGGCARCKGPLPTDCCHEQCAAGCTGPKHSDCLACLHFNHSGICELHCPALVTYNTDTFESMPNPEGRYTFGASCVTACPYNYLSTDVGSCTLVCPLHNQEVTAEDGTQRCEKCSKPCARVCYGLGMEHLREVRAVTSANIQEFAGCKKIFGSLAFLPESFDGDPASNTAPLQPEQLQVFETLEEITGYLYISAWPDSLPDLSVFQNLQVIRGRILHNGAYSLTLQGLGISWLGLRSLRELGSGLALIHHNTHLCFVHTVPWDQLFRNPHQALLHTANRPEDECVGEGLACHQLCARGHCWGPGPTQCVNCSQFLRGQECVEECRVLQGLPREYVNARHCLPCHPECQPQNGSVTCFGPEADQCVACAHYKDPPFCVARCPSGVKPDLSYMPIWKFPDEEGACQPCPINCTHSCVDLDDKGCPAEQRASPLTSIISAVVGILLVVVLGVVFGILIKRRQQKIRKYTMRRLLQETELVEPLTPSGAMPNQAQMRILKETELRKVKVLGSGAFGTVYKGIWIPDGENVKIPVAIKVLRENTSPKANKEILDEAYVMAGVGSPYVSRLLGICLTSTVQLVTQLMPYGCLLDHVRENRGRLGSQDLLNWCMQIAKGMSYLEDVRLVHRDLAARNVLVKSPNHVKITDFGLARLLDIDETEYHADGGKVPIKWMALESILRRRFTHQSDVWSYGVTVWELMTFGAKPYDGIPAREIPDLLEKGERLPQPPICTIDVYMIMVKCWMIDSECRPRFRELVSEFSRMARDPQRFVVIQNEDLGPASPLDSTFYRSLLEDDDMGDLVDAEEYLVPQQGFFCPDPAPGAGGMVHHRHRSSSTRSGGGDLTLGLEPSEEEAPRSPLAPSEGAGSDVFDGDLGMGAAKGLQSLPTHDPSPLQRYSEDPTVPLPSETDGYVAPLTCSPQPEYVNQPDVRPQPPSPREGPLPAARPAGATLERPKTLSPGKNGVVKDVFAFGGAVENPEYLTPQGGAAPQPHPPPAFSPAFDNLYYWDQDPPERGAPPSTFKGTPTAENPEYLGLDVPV
Procedure: The compounds were tested for HER2 kinase inhibition abilities using an HER2 assay kit (Invitrogen, Carlsbad, CA, USA, PV3366). The kinase kit was obtained from Invitrogen; all compounds were purchased from Thermo Electron Corporation (Walthan, MA, USA). The concentrations of HER2 were set as 0.20 μg/mL. The concentration of selected compounds was set as six gradients (0.0001–10 μM) in DMSO. Firstly, 2.5 μL of ATP solution and 2.5 μL of compound solution was added to the 5.0 μL substrate peptide. Then, the mixture solution on the plate was incubated for 1 h at 25 °C. Next, 5 μL of development solution was added to the well, and the plate was incubated for 1 h at 25 °C. To terminate the reaction, 5 μL of stop reagent was added to plate. The Infinite M100 Pro multi-label reader (Tecan, Männedorf, Switzerland) was used to measure the activity. Graph Pad Prism 5.0 (Graph Pad Software, San Diego, CA, USA) was used to calculate the IC50 values.

[1] = tested on: HER2-overexpressing BT474 cell line; assay: Cell proliferation inhibition, CCK-8; type: cell-based; conditions: Homo sapiens, BT-474; BT474, 48 h, CCK-8, mean ± SD
Procedure: (§1) All cells were obtained from ATCC (Manassas, VA, USA). The HER2-overexpression SKBR3 cell line and BT474 cell line were cultured in RPMI (Roswell Park Memorial Institute medium) 1640 medium and supplemented with 10% FBS (fetal bovine serum). In addition, 100 U/mL of Penicillin and Streptomycin were added. The cell cultures were maintained at 37 °C in a humidified atmosphere of 5% CO2. Cells were seeded at density 2 × 10^4/mL in 96-well plates per well. The medium was removed after seeding 24 h. The compounds were dissolved in DMSO (dimethyl sulfoxide) and diluted with medium to different concentrations. Then, 20 µL of the selected compounds solution were added in 96-well plates, and incubation continued for 48 h at 37 °C in a humidified atmosphere of 5% CO2. After that, the medium was removed, 90 µL of fresh medium and 10 μL of CCK-8 [54] (Dojindo Molecular Technologies Inc., Kumamoto, Japan) was added to each well and incubated for additional half hour. The activity was measured by microplate reader. Graph Pad Prism 5.0 was used to calculated the IC50 values. The normal breast cells (Hs578Bst) were cultured the same as SKBR3 cells. Cell viability was measured by the CCK-8 assay as previously described.

[2] = tested on: HER2-overexpressing SKBR3 cell line; assay: Cell proliferation inhibition, CCK-8; type: cell-based; conditions: Homo sapiens, SK-BR-3; SKBR3, 48 h, CCK-8, mean ± SD
Procedure: as §1

[3] = tested on: normal breast cells (Hs578Bst); assay: Normal breast cell viability, CCK-8; type: cell-based; conditions: different concentrations, 24 h of treatment
Procedure: Three compounds (cell inhibition IC50 values < 50 μM) were further tested on the normal breast cell (Hs578Bst) to study the effect on cell proliferation and thus verify the toxicity of normal cells. CCK-8 (Cell Counting kit-8) assays were utilized to determine the effects of different concentrations of three compounds on normal breast cell viability after 24 h of treatment.
as §1

| Structure (SMILES) | IC50 (HER2 kinase) [µM] | IC50 [1] [µM] | IC50 [2] [µM] | cytotoxicity against normal breast cells (cell viability) [3] | cytotoxicity against normal breast cells (cell viability) ([3]; listed as ZINC31178641) |
| --- | --- | --- | --- | --- | --- |
| CC(C)=CCC/C(C)=C/Cc1c(O)cc2c(c1O)C(=O)[C@H](O)[C@@H](c1ccc(O)cc1)O2 [ZINC13378641, (2R,3R)-6-[(2E)-3,7-dimethylocta-2,6-dienyl]-3,5,7-trihydroxy-2-(4-hydroxyphenyl)chroman-4-one] | 3.71 ± 0.03 | 18.6 ± 2.06 | 26.5 ± 1.62 | little cytotoxicity | low cytotoxicity |
| CC(C)=CCC/C(C)=C/Cc1c(O)cc2c(c1O)C(=O)CC(c1ccc(O)c(O)c1)O2 (stereo not drawn) [ZINC15122021, 2-(3,4-dihydroxyphenyl)-6-[(2E)-3,7-dimethylocta-2,6-dienyl]-5,7-dihydroxy-2,3-dihydrochromen-4-one] | 0.18 ± 0.002 | 4.11 ± 0.95 | 1.22 ± 0.05 | little cytotoxicity; also recorded: low cytotoxicity | – |
| CC(C)=CC[C@@H](O)/C(C)=C/Cc1cc(C(=O)O)cc(C/C=C(\C)CO)c1O [ZINC31166919, 4-hydroxy-3-[(2E,4R)-4-hydroxy-3,7-dimethyl-octa-2,6-dienyl]-5-[(E)-4-hydroxy-3-methyl-but-2-enyl]be] | 2.63 ± 0.03 | 6.78 ± 0.68 | 8.61 ± 0.45 | slightly enhanced cytotoxicity with increase of concentration | – |
| O=C(O)c1cccc(C(=O)CC[C@@H]2O[C@@H](n3cnc4c(=O)[nH]cnc43)[C@@H](O)[C@H]2O)c1 [ZINC35456515, 3-[3-[(2S,3R,4S,5R)-3,4-dihydroxy-5-(6-hydroxypurin-9-yl)tetrahydrofuran-2-yl]propanoyl]benzoic] | > 10 | > 50 | > 50 | – | – |
| C/C(=C\Cc1cc(C(=O)O)cc(CC[C@H](C)C(=O)/C=C/C(C)(C)O)c1O)CO [ZINC49181256, 4-hydroxy-3-[(E,3S)-7-hydroxy-3,7-dimethyl-4-oxo-oct-5-enyl]-5-[(E)-4-hydroxy-3-methyl-but-2-enyl]be] | 9.18 ± 0.01 | > 50 | > 50 | – | – |
| CS(=O)(=O)CCNCc1ccc(-c2ccc3ncnc(Nc4ccc(OCc5cccc(F)c5)c(Cl)c4)c3c2)o1 [lapatinib, Lapatinib, reference compound] | – | 0.45 ± 0.03 | 0.38 ± 0.02 | – | – |
